Source: ChEMBL document CHEMBL2146431, “Phosphoramidate derivatives of acyclovir: synthesis and antiviral activity in HIV-1 and HSV-1 models in vitro” (Bioorg Med Chem, 2012)
The source made the active and inactive calls. The calls are words filed in the database; no cut-off is given here.

Tests used:
Jurkat = experiment: Cytotoxicity against human Jurkat cells up to 2000 uM after 48 hrs by trypan blue staining; format: cell-based
[1] = Chemical stability of the compound in KCl/HCl buffer at pH 2 assessed as monoamidate formation by TLC analysis; format: physicochemical
[2] = Half life of the compound in KCl/KOH buffer at pH 12 assessed as acyclovir formation by TLC analysis; format: physicochemical
[3] = Half life of the compound in phosphate buffer at pH 7.4 assessed as acyclovir formation by TLC analysis; format: physicochemical
[4] = Half life of the compound in KCl/HCl buffer at pH 2 assessed as acyclovir monophosphate formation by TLC analysis; format: physicochemical
[5] = Half life of the compound in KCl/KOH buffer at pH 12 assessed as acyclovir and acyclovir monophosphate formation by TLC analysis; format: physicochemical
[6] = test system: Human immunodeficiency virus 1; experiment: Antiviral activity against HIV1 pseudovirus infected in Jurkat cells coexpressing GFP assessed as viral growth inhibition incubated for 2 to 8 hrs prior to infection measured after 48 hrs by flow cytofluorimetric analysis; format: functional, organism-based
[7] = test system: Human immunodeficiency virus 1; experiment: Antiviral activity against HIV1 pseudovirus infected in Jurkat cells coexpressing GFP assessed as viral growth inhibition up to 100 uM incubated for 2 to 8 hrs prior to infection measured after 48 hrs by flow cytofluorimetric analysis; format: functional, organism-based
[8] = Cytotoxicity against african green monkey Vero E6 cells after 72 hrs by trypan blue staining; format: cell-based; conditions: chlorocebus sabaeus
Human alphaherpesvirus 1 [9] = experiment: Antiviral activity against acyclovir-resistant HSV1 L2 infected in Vero E6 cells assessed as inhibition of virus-induced cytopathic effect after 48 hrs; format: functional, organism-based; conditions: Human alphaherpesvirus 1, L2, Vero
Human alphaherpesvirus 1 [10] = experiment: Antiviral activity against HSV1 L2 infected in Vero E6 cells assessed as inhibition of virus-induced cytopathic effect after 48 hrs; format: functional, organism-based; conditions: Human alphaherpesvirus 1, L2, Vero
[11] = Selectivity ratio of CC50 for african green monkey Vero cells to EC50 for acyclovir-resistant HSV1 L2; format: ADME, cell-based; conditions: read-out: Ratio CC50/EC50
[12] = Selectivity ratio of CC50 for african green monkey Vero cells to EC50 for HSV1 L2; format: ADME, cell-based; conditions: read-out: Ratio CC50/EC50
Human alphaherpesvirus 1 [13] = experiment: Resistance ratio of EC50 for acyclovir-resistant HSV1 L2 to EC50 for HSV1 L2; format: functional
[14] = test system: Human immunodeficiency virus 1; experiment: Antiviral activity against HIV1 pseudovirus by cell-based assay; format: functional, organism-based
[15] = test system: Human immunodeficiency virus 1; experiment: Antiviral activity against HIV1 pseudovirus infected in Jurkat cells coexpressing GFP assessed as viral growth inhibition at 20 uM incubated for 2 to 8 hrs prior to infection measured after 48 hrs by flow cytofluorimetric analysis; format: functional; conditions: Human immunodeficiency virus 1, Jurkat; read-out: GI

SMILES | Activity (Jurkat) | Stability [1] | t1/2 [2] | t1/2 [3] | t1/2 [4] | t1/2 [5] | growth inhibition (GI) [6] | growth inhibition (GI) [7] | CC50 at 72 h [8] | EC50 (Human alphaherpesvirus 1 [9]) | EC50 (Human alphaherpesvirus 1 [10]) | selectivity ratio [11] | selectivity ratio [12] | Ratio EC50 (Human alphaherpesvirus 1 [13]) | EC50 [14] | EC50 ([6]; Human immunodeficiency virus 1, Jurkat) | inhibition of growth at 20 µM [15]
Nc1nc2c(ncn2COCCOP(N)(N)=O)c(=O)[nH]1 | Non-toxic | Stable | < 1 h | 4 h | 0.083 h | – | – | – | – | – | – | – | – | – | – | – | –
CN(C)CCCNP(=O)(O)OCCOCn1cnc2c(=O)[nH]c(N)nc21.N | Non-toxic | – | – | > 120 h | < 0.083 h | 48 h | – | – | – | – | – | – | – | – | – | – | –
CCCCCCNP(=O)(O)OCCOCn1cnc2c(=O)[nH]c(N)nc21.N | Non-toxic | – | – | > 120 h | < 0.083 h | 48 h | Dose-dependent effect | Active | – | – | – | – | – | – | – | – | –
Nc1nc2c(ncn2COCCOP(=O)(N2CCCC2)N2CCCC2)c(=O)[nH]1 | Non-toxic | Stable | 3 h | 18 h | 0.167 h | – | – | – | – | – | – | – | – | – | – | – | –
Nc1nc2c(ncn2COCCOP(=O)(N2CCOCC2)N2CCOCC2)c(=O)[nH]1 | Non-toxic | Stable | 18 h | > 120 h | 0.5 h | – | – | – | > 2000 µM | > 500 µM | > 500 µM | – | – | – | – | – | –
Nc1nc2c(ncn2COCCO)c(=O)[nH]1 [ACYCLOVIR] | – | – | – | – | – | – | Dose-dependent effect | Active | > 2000 µM | 530 µM | 1.7 µM | > 3.8 | > 1180 | – | – | – | –
Nc1nc(=O)c2ncn(COCCOP(=O)(O)O)c2[nH]1 | Non-toxic | – | – | – | – | – | – | – | > 2000 µM | 41 µM | 20 µM | > 49 | > 100 | – | – | – | –
CCCN(CCC)P(=O)(O)OCCOCn1cnc2c(=O)[nH]c(N)nc21.N | Non-toxic | – | – | > 120 h | < 0.083 h | 96 h | Dose-dependent effect | Active | > 2000 µM | 37 µM | 15 µM | > 54 | > 133 | 2.5 | – | – | –
Cc1cn([C@H]2C[C@H](N=[N+]=[N-])[C@@H](CO)O2)c(=O)[nH]c1=O [ZIDOVUDINE] | – | – | – | – | – | – | – | – | – | – | – | – | – | – | 0.003 µM | 0.09 µM | –
CCCCCCNP(=O)(NCCCCCC)OCCOCn1cnc2c(=O)[nH]c(N)nc21 | Non-toxic | Stable | 1 h | 5 h | 0.083 h | – | – | – | – | – | – | – | – | – | – | – | –
N.Nc1nc2c(ncn2COCCOP(=O)(O)N2CCCC2)c(=O)[nH]1 | Non-toxic | – | – | > 120 h | < 0.083 h | 96 h | Dose-dependent effect | Active | – | – | – | – | – | – | – | – | –
N.Nc1nc2c(ncn2COCCOP(=O)(O)N2CCOCC2)c(=O)[nH]1 | Non-toxic | – | – | > 120 h | < 0.083 h | > 120 h | Dose-dependent effect | Active | > 2000 µM | 25 µM | 9.7 µM | > 80 | > 206 | 2.5 | – | – | 50%
CN(C)CCNP(=O)(O)OCCOCn1cnc2c(=O)[nH]c(N)nc21.N | Non-toxic | – | – | > 120 h | < 0.083 h | 48 h | – | – | – | – | – | – | – | – | – | – | –
N.Nc1nc2c(ncn2COCCOP(=O)(O)NCCN2CCOCC2)c(=O)[nH]1 | Non-toxic | – | – | > 120 h | < 0.083 h | 48 h | Dose-dependent effect | Active | – | – | – | – | – | – | – | – | –
